Assay results as given in patent US4772633A, “6-pyridyl- and 6-phenyl-3-phenyl-1-hexenes and -1-hexynes, composition containing them, and insecticidal and acaricidal method of using them” (Sumitomo Chemical Company, Limited, priority 1986, dated 1988).

Test system: common mosquito (Culex pipiens pallens)
Test: Test Example 1: mortality of larvae and inhibition of emergence of common mosquito
Type: in vivo
Settings: for Inhibitory ratio of emergence: 3.5 ppm, counted when all mosquitoes of no treatment group had emerged; for mortality at 3.5 ppm: Culex pipiens, 24 h, last instar larvae, after one day
Description: The emulsifiable concentrates of the following present compounds obtained according to Formulation example 2 were each diluted with water so as to obtain respective aqueous solutions containing 3.5 ppm of said compounds, respectively. One hundred ml of thus diluted aqueous solutions were poured into respective polyethylene cups of 180 ml volume, and 20 of the last instar larvae of common mosquito (Culex pipiens pallens) were liberated thereto. After one day, the dead or alive of the larvae were examined. Thereafter, the feed was added to respective cups and the number of emerged mosquitoes of the respective cups was counted when all the mosquitoes of no treatment group had […] to calculate the inhibitory ratios of the emergence. The mortality and the inhibitory ratio of the emergence are shown according to the following three criteria: mortality: A; 90% or more, […] inhibitory: A; 90% or more, ratio of emergence B; less than 90% to 80% C; less than 80%.

Structure (SMILES) | Inhibitory ratio of emergence | mortality at 3.5 ppm [%]
C#CC(C)(CCCc1ccc(F)c(Oc2ccc(Cl)cc2)c1)c1ccc(OCC)cc1 (centres unmarked) [(34), 3-(4-Ethoxyphenyl)-3-methyl-6-{3-(4-chlorophenoxy)-4-fluorophenyl}-1-hexyne] | A (90% or more) | > 90
C#CC(CC)(CCCc1ccc(F)c(Oc2ccccc2)c1)c1ccc(Cl)cc1 (centres unmarked) [(41), 3-(4-Chlorophenyl)-3-ethyl-6-(3-phenoxy-4-fluorophenyl)-1-hexyne] | A (90% or more) | > 90
C=CC(C)(CCCc1ccc(F)c(Nc2ccccc2)c1)c1ccc(OCC)cc1 (centres unmarked) [(31), 3-(4-Ethoxyphenyl)-3-methyl-6-(3-anilino-4-fluorophenyl)-1-hexene] | A (90% or more) | > 90
C#CC(C)(CCCc1cccc(Oc2ccc(F)cc2)c1)c1ccc(OCC)cc1 (centres unmarked) [(15), 3-(4-Ethoxyphenyl)-3-methyl-6-{3-(4-fluorophenoxy)phenyl}-1-hexyne] | A (90% or more) | > 90
C#CC(C)(CCCc1cccc(Oc2ccccc2)n1)c1ccc(OC)cc1 (centres unmarked) [(44), 3-(4-methoxyphenyl)-3-methyl-6-(6-phenoxypyridin-2-yl)-1-hexyne] | A (90% or more) | 10 to 90
C#CC(C)(CCCc1ccc(F)c(Oc2ccccc2)c1)c1ccc(Cl)c(Cl)c1 (centres unmarked) [(36), 3-(3,4-Dichlorophenyl)-3-methyl-6-(3-phenoxy-4-fluorophenyl)-1-hexyne] | A (90% or more) | 10 to 90
C#CC(CC)(CCCc1ccc(F)c(Oc2ccccc2)c1)c1ccc(OCC)cc1 (centres unmarked) [(29), 3-(4-Ethoxyphenyl)-3-ethyl-6-(3-phenoxy-4-fluorophenyl)-1-hexyne] | A (90% or more) | > 90
C#CC(CCCc1cccc(Oc2ccccc2)c1)c1ccc(OCC)cc1 (centres unmarked) [(28), 3-(4-Ethoxyphenyl)-6-(3-phenoxyphenyl)-1-hexyne] | A (90% or more) | > 90
C#CC(C)(CCCc1ccc(F)c(Cc2ccccc2)c1)c1ccc(OCC)cc1 (centres unmarked) [(30), 3-(4-Ethoxyphenyl)-3-methyl-6-(3-benzyl-4-fluorophenyl)-1-hexyne] | A (90% or more) | > 90
C#CC(C)(CCCc1ccc(F)c(Oc2ccc(F)cc2)c1)c1ccc(OCC)cc1 (centres unmarked) [(38), 3-(4-Ethoxyphenyl)-3-methyl-6-{3-(4-fluorophenoxy)-4-fluorophenyl}-1-hexyne] | A (90% or more) | > 90
C#CC(C)(CCCc1ccc(F)c(Nc2ccccc2)c1)c1ccc(OCC)cc1 (centres unmarked) [(21), 3-(4-Ethoxyphenyl)-3-methyl-6-(3-anilino-4-fluorophenyl)-1-hexyne] | A (90% or more) | > 90
C#CC(C)(CCCc1cccc(Oc2ccccc2)c1)c1ccc2c(c1)OCO2 (centres unmarked) [(14), 3-(3,4-Methylenedioxyphenyl)-3-methyl-6-(3-phenoxyphenyl)-1-hexyne] | A (90% or more) | > 90
C#CC(C)(CCCc1cccc(Oc2ccccc2)c1)c1ccc(OC)cc1 (centres unmarked) [(24), 3-(4-Methoxyphenyl)-3-methyl-6-(3-phenoxyphenyl)-1-hexyne] | A (90% or more) | 10 to 90
C#CC(CC)(CCCc1cccc(Oc2ccccc2)c1)c1ccc(Cl)cc1 (centres unmarked) [(26), 3-(4-Chlorophenyl)-3-ethyl-6-(3-phenoxyphenyl)-1-hexyne] | A (90% or more) | > 90
C#CC(C)(CCCc1ccc(F)c(Oc2ccccc2)c1)c1ccc(OC)cc1 (centres unmarked) [(5), 3-(4-Methoxyphenyl)-3-methyl-6-(3-phenoxy-4-fluorophenyl)-1-hexyne] | A (90% or more) | > 90
C=CC(C)(CCCc1cccc(Oc2ccccc2)n1)c1ccc(OCC)cc1 (centres unmarked) [(19), 3-(4-Ethoxyphenyl)-3-methyl-6-(6-phenoxypyridin-2-yl)-1-hexene] | A (90% or more) | 10 to 90
